Values of other authors in patent US10709795B2, “Method for delivering pharmaceutical nanoparticles to cancer cells” (National Guard Health Affairs, priority 2017, dated 2020).
Where two headings read alike, the source gives them in different places.

Assays:
[1] = not given; remark: listed apart in the source
[2] = Grades 1-4, N = 2448, 1st line of this name
[3] = Grades 1-4, N = 2448, 2nd line of this name

In the case of `N#Cc1ccc(C(c2ccc(C#N)cc2)n2cncn2)cc1` [Femara, Letrozole], the “Endometrial Hyperplasia/Cancer, %” value (Grades 1-4, 1st line of this name) is given as 0.8%, the “Endometrial Hyperplasia/Cancer, %” value (Grades 1-4, 2nd line of this name) is given as 0.3% and the “Alopecia, %” value (Grades 1-4, N = 2448) is given as 3.4%. For the same compound, the “Angina, %” value (Grades 1-4, N = 2448) was 1.3%, the “Angine, %” value (Grades 1-4, N = 2448) was 1.1% and the “Anorexia, %” value (Grades 1-4, N = 2448) was 1.5%. The “Arthralgia/Arthritis, %” value (Grades 1-4, N = 2448) was 25.2%, the “Back pain, %” value (Grades 1-4, N = 2448) was 5.1% and the “Bone Pain, %” value (Grades 1-4, N = 2448) was 5.0%. For the same compound, the “Breast Pain, %” value (Grades 1-4, N = 2448) was 2.0%, the “Cataract, %” value (Grades 1-4, N = 2448) was 2.0% and the “Constipation, %” value (Grades 1-4, N = 2448) was 2.0%. The “Depression, %” value (Grades 1-4, N = 2448) was 4.9%, the “Dizziness/Light headedness, %” value (Grades 1-4, N = 2448) was 3.4% and the “Edema, %” value (Grades 1-4, N = 2448) was 6.7%. For the same compound, the “Endometrial proliferation Disorders, %” value (Grades 1-4, N = 2448) was 0.3%, the “Fatigue (Lethargy, Malaise, Asthenia), %” value (Grades 1-4, N = 2448) was 9.6% and the “Headache, %” value (Grades 1-4, N = 2448) was 4.3%. The “Hot Flashes/Flushes, %” value (Grades 1-4, N = 2448) was 33.5%, the “Hypercholesterolemia, %” value (Grades 1-4, N = 2448) was 52.3% and the “Myalgia, %” value (Grades 1-4, N = 2448) was 8.9%. For the same compound, the “Myocardial Ischemia, %” value (Grades 1-4, N = 2448) was 0.2%, the “Nausea, %” value (Grades 1-4, N = 2448) was 11.6% and the “Night Sweats, %” value (Grades 1-4, N = 2448) was 25.2%. For the same compound, the “Osteopenia, %” value (Grades 1-4, N = 2448) was 3.6%, the “Osteoporosis NOS, %” value (Grades 1-4, N = 2448) was 5.1% and the “Other Endometrial Disorders, %” value (Grades 1-4, N = 2448) was <0.1%. For the same compound, the “Pain in extremity, %” value (Grades 1-4, N = 2448) was 4.2%, the “Pts with any adverse event, %” value (Grades 1-4, N = 2448) was 94.4% and the “Vaginal Bleeding, %” value (Grades 1-4, N = 2448) was 5.2%. For the same compound, the “Vaginal Irritation, %” value (Grades 1-4, N = 2448) was 4.5%, the “Vomiting, %” value (Grades 1-4, N = 2448) was 3.3% and the “Weight Decrease, %” value (Grades 1-4, N = 2448) was 5.7%. The “Weight Increase, %” value (Grades 1-4, N = 2448) was 13.8%, the “Bone Fractures, %” value [2] was 14.6% and the “Cerebrovascular Accident, %” value [2] was 2.1%. For the same compound, the “Myocardial Infarction, %” value [2] was 1.0%, the “Other Cardiovascular1, %” value [2] was 10.6% and the “Second Malignancies, %” value [2] was 2.2%. For the same compound, the “Thromboembolic Event, %” value [2] was 2.1%, the “Bone Fractures, %” value [3] was 10.1% and the “Cerebrovascular Accident, %” value [3] was 2.9%. The “Myocardial Infarction, %” value [3] was 1.5%, the “Other Cardiovascular1, %” value [3] was 12.7% and the “Second Malignancies, %” value [3] was 4.2%. The “Thromboembolic Event, %” value [3] was 2.9%, the “Anorexia, %” value (Grades 3-4, N = 2448) was <0.1% and the “Arthralgia/Arthritis, %” value (Grades 3-4, N = 2448) was 3.5%. For the same compound, the “Back pain, %” value (Grades 3-4, N = 2448) was 0.3%, the “Bone Pain, %” value (Grades 3-4, N = 2448) was 0.2% and the “Breast Pain, %” value (Grades 3-4, N = 2448) was <0.1%. The “Cataract, %” value (Grades 3-4, N = 2448) was 0.7%, the “Constipation, %” value (Grades 3-4, N = 2448) was 0.1% and the “Depression, %” value (Grades 3-4, N = 2448) was 0.7%. The “Dizziness/Light headedness, %” value (Grades 3-4, N = 2448) was <0.1%, the “Edema, %” value (Grades 3-4, N = 2448) was 0.1% and the “Fatigue (Lethargy, Malaise, Asthenia), %” value (Grades 3-4, N = 2448) was 0.2%. The “Headache, %” value (Grades 3-4, N = 2448) was 0.4%, the “Hypercholesterolemia, %” value (Grades 3-4, N = 2448) was 0.4% and the “Myalgia, %” value (Grades 3-4, N = 2448) was 0.7%. The “Nausea, %” value (Grades 3-4, N = 2448) was 0.2%, the “Osteoporosis NOS, %” value (Grades 3-4, N = 2448) was 0.4% and the “Pain in extremity, %” value (Grades 3-4, N = 2448) was 0.1%. For the same compound, the “Pts with any adverse event, %” value (Grades 3-4, N = 2448) was 25.9%, the “Vaginal Bleeding, %” value (Grades 3-4, N = 2448) was <0.1% and the “Vaginal Irritation, %” value (Grades 3-4, N = 2448) was <0.1%. The “Vomiting, %” value (Grades 3-4, N = 2448) was 0.1%, the “Weight Decrease, %” value (Grades 3-4, N = 2448) was 0.3% and the “Weight Increase, %” value (Grades 3-4, N = 2448) was 1.1%. For the same compound, the “water solubility (in words)” value [1] was “water insoluble”.
